Measurements taken from PMC5225203, “Multiparameter toxicity assessment of novel DOPO-derived organophosphorus flame retardants” (Archives of Toxicology, 2016).

What was measured:
[1] = system: fully differentiated LUHMES cells; assay: Toxicity in mature central nervous system neurons (neurite mass, viability); type: cell-based, human; settings: 48 h; for influence on neurites / viability: concentrations as high as 100 µM; for concentration evoking degeneration of neurites: day 6–8, all assays
Procedure: LUHMES cells are conditionally immortalized human fetal ventral mesencephalic neuronal precursor cells that were obtained by clonal selection. Differentiated LUHMES cells show a clear dopaminergic phenotype, which was described in detail previously (Schildknecht et al. [2009]; Scholz et al. [2011]). Cells were propagated in advanced DMEM/F12 (Gibco/Invitrogen, Darmstadt, Germany) with 1 × N2 supplement (Invitrogen), 2 mM L-glutamine (Gibco), and 40 ng/mL recombinant bFGF (R&D Systems, Minneapolis, MN, USA). The differentiation process was initiated by adding differentiation medium consisting of advanced DMEM/F12, 1 × N2 supplement, 2 mM L-glutamine, 1 mM dibutyryl cAMP (Sigma), 1 µg/mL tetracycline (Sigma), and 2 ng/mL recombinant human GDNF (R + D Systems). After 2 days, cells were trypsinized, collected in advanced DMEM/F12 medium, and seeded onto 24-well plates at a density of 160,000 cells/cm^2. The differentiation process was continued for 4 days. Fully differentiated LUHMES cells were treated with the tested flame retardants for 48 h from day 6 to 8 of differentiation. For visualization of morphology, cells were fixed with 4 % paraformaldehyde for 20 min at room temperature, permeabilized with 0.2 % Triton X-100, washed with PBS, blocked with 1 % BSA (Calbiochem, San Diego, CA, USA) in PBS for 1 h, and stained with a polyclonal anti-β-III-tubulin antibody (Sigma) in 1 % BSA/PBS at 4 °C overnight. After washing, secondary antibodies (anti-mouse-IgG, Alexa 488, Molecular Probes; 1:1000) in 1 % BSA/PBS were added for 1 h, after which nuclei were stained with Hoechst dye H-33342 (1 µg/mL) for 20 min. For visualization, an Olympus IX 81 microscope (Hamburg, Germany) equipped with an F-view CCD camera was used. For quantitative evaluation of the neurite area, β-III-tubulin-stained cells were analyzed using an automated microplate-reading microscope (Array-Scan II® HCS Reader, Cellomics, Pittsburgh, PA, USA) equipped with a Hamamatsu ORCA-ER camera (1024 × 1024 resolution; run at 2 × 2 binning). Nuclei were identified according to their intensity, size, area, and shape. A virtual area corresponding to the cell soma was defined around each nucleus. The total β-III-tubulin pixel area per field minus the soma areas in that field was defined as neurite mass.
[% of total activity ± SD]
[% of total activity± SD]
Suppl. Fig. 7. Toxicity of flame retar dants in central human neurons. Mature human dopaminergic neurons (LUHMES) were treated w ith the different flame retardants in the concentrations as indicated for 48 h from day 6 to day 8 of differentiation. a Cell viability was determined by the resazurin reduction and by the lact ate dehydrogenase release a ssays. b Intracellular levels of ATP and of reduced glutathione (GSH) were measured in parallel.

[2] = system: human dorsal root ganglia-like cells (hESC-H9 derived peripheral neurons); assay: Peripheral neurotoxicity test (PeriTox-test); type: cell-based; settings: 48 h
Procedure: The human pluripotent stem cell (hPSC) line H9 (WA09 line) was obtained from WiCell (Madison, WI, USA). Import of cells and experiments was authorized under license #170-79-1-4-27 (Robert Koch Institute, Berlin, Germany). Cells were cultured according to standard protocols (Thomson et al. [1998]) and differentiated into dorsal root ganglia-like cells as described earlier (Chambers et al. [2012]), with slight modifications. Briefly, neural differentiation was promoted by adding neural differentiation medium and the combination of 6 small molecule pathway inhibitors [noggin (35 ng/mL; R&D Systems, Minneapolis, MN, USA), dorsomorphin (600 nM; Tocris Bioscience, Bristol, UK), […] (10 μM; Tocris Bioscience, Bristol, UK), CHIR99021 (1.5 µM; Axon Medchem, Vienna, VA, USA), SU5402 (1.5 µM; Tocris Bioscience, Bristol, UK), and DAPT (5 µM; Merck, Darmstadt, Germany)]. The cells were cryopreserved on day 8′ of differentiation (DoD 8′). For each experiment, cells were thawed in neural differentiation medium supplemented with CHIR99021 (1.5 µM), SU5402 (1.5 µM), and DAPT (5 µM). For the peripheral neurotoxicity test (PeriTox-test), test chemicals were serially diluted in differentiation medium containing BDNF, GDNF, and NGF (25 ng/mL; R&D Systems, Minneapolis, USA) and added to the cells on day 3 after thawing. After 48 h, neurite area and viability were assessed as described earlier (Krug et al. [2013]). Briefly, cells were loaded with 1 µM calcein-AM and 1 µg/mL H-33342 for 1 h at 37 °C. For image acquisition, an Array-Scan VTI HCS (high content screening) microscope (Cellomics, Waltham, MA USA) was used. In an automated procedure, all H-33342^+/calcein^+ cells were analyzed as viable cells. In channel 1, H-33342^+ nuclei were detected according to their size, area, shape, and intensity at excitation/emission wavelengths of 365 ± 50/535 ± 45. The nuclei borders were expanded radially by 3.2 µm to define a virtual cell soma area (VCSA). In channel 2 (at excitation/emission wavelengths of 474 ± 40/535 ± 45), all calcein^+ pixels were identified as viable cell structures (VCS). An algorithm was applied that used the VCSA as a filter in the calcein channel and subtracted it from the VCS. The remaining pixels (VCS-VCSA) in the calcein channel were defined as neurite area and were represented relative to the untreated control.

[3] = system: neuronal and non-neuronal cell models; assay: Synopsis of all in vitro assays applied in this work; type: cell-based, human; settings: for cytotoxic effects: at concentrations higher than 100 µM; for IC50: Homo sapiens, read-out: average IC50 values; for concentration with cell type-independent cytotoxic properties: all cellular in vitro models
Procedure: IC50 values are defined by the concentration of the flame retardant investigated where the response was reduced by half. Log-transformed flame retardant concentration values and the respective response data were fitted to a four-parameter logistic equation: y=A+B-A/1+(x/C)^D The percent inhibition response data are represented by y; B = maximum of y; A = minimum of y; x = flame retardant concentration; C = IC50; D = Hill slope factor. The IC50 values were calculated from these sigmoidal dose–response curves utilizing Prism 5.0 (GraphPad, San Diego, CA, USA) software.

| SMILES | influence on neurites / viability [1] | concentration moderately affecting neurite mass and reducing cell viability [2] | cytotoxic effects [3] | influence on all parameters investigated ([3]; concentrations up to 400 µM) | harmful effects ([3]; all assays utilized) | concentration evoking degeneration of neurites [1] | cell viability [2] | neurite integrity [2] | IC50 [3] | concentration with cell type-independent cytotoxic properties [3] | concentration with distinct neuro-selective cytotoxicity ([3]; abstract) | concentration detrimentally influencing central and peripheral neurons ([3]; central and peripheral neurons) | toxicity in non-neuronal models ([3]; macrophages, lung epithelial cells, keratinocytes, concentrations as high as 400 µM) |
| --- | --- | --- | --- | --- | --- | --- | --- | --- | --- | --- | --- | --- | --- |
| O=[PH]1Oc2ccccc2-c2ccccc21 (centres unmarked) [DOPO, 9,10-dihydro-9-oxa-10-phosphaphenanthrene-10-oxide] | no influence | > 50 µM | no comparable effects | no influence | – | – | – | – | – | – | – | – | – |
| O=P1(NCCNP2(=O)Oc3ccccc3-c3ccccc32)Oc2ccccc2-c2ccccc21 (centres unmarked) [EDA-DOPO, 6,6′-(ethane-1,2-diylbis(azanediyl))bis(6H-dibenzo[c,e][1,2]oxaphosphinine-6-oxide)] | no influence | > 50 µM | no comparable effects | – | no harmful effects | – | – | – | – | – | – | – | – |
| O=P1(OCCOP2(=O)Oc3ccccc3-c3ccccc32)Oc2ccccc2-c2ccccc21 (centres unmarked) [EG-DOPO, 6,6′-(ethane-1,2-diylbis(oxy))bis(6H-dibenzo[c,e][1,2]oxaphosphinine-6-oxide)] | – | – | – | – | – | > 10 µM | significantly affected | significantly affected | 20 to 100 µM | > 10 µM | – | – | – |
| O=P1(NCCOP2(=O)Oc3ccccc3-c3ccccc32)Oc2ccccc2-c2ccccc21 (centres unmarked) [ETA-DOPO, 6-(2-((6-oxido-6H-dibenzo[c,e][1,2]oxaphosphinin-6-yl)amino)ethoxy)-6H-dibenzo[c,e][1,2]oxaphosphinine 6-oxide] | – | > 50 µM | – | – | – | > 10 µM | – | – | 20 to 100 µM | > 10 µM | – | – | – |
| Brc1ccc(Oc2cc(Br)c(Br)cc2Br)c(Br)c1 [PBDE-99, reference compound] | – | – | – | – | – | > 10 µM | significantly affected | significantly affected | – | – | ≥ 10 µM | > 10 µM | no significant toxicity |
